Active and inactive are the calls of the source. The rule behind the calls is not given here.
Key:
HL-60 [1] = assay: Induction of apoptosis in human HL-60 cells assessed as live cells at 0.5 uM measured after 24 hrs by Annexin-V/FITC and propidium iodide staining based flow cytometry (reference value: 89.29 %); type: functional
HL-60 [2] = assay: Induction of apoptosis in human HL-60 cells assessed as increase in accumulation at sub-G1 phase at 0.5 uM after 24 hrs by propidium iodide staining based flow cytometry (reference value: 2.72 %); type: functional
HL-60 [3] = assay: Induction of apoptosis in human HL-60 cells assessed as necrotic cells at 0.5 uM measured after 24 hrs by Annexin-V/FITC and propidium iodide staining based flow cytometry (reference value: 1.01 %); type: functional
HL-60 [4] = assay: Induction of apoptosis in human HL-60 cells assessed as early apoptotic cells at 0.5 uM measured after 24 hrs by Annexin-V/FITC and propidium iodide staining based flow cytometry (reference value: 2.46 %); type: functional
HL-60 [5] = assay: Induction of apoptosis in human HL-60 cells assessed as increase in accumulation at sub-G1 phase at 1 uM after 24 hrs by propidium iodide staining based flow cytometry (reference value: 2.72 %); type: functional
HL-60 [6] = assay: Induction of apoptosis in human HL-60 cells assessed as early apoptotic cells at 1 uM measured after 24 hrs by Annexin-V/FITC and propidium iodide staining based flow cytometry (reference value: 2.46 %); type: functional
[7] = biological target: T1, Protein deacetylase HDAC6 (Homo sapiens, UniProt Q9UBN7); assay: Inhibition of recombinant C-terminal FLAG-tagged full length human HDAC6 expressed in baculovirus infected Sf9 cells using Boc-Lys(Ac)-AMC as substrate preincubated for 15 mins followed by substrate addition and measured after 60 mins by fluorescence based assay
T1 sequence (Q9UBN7 whole entry): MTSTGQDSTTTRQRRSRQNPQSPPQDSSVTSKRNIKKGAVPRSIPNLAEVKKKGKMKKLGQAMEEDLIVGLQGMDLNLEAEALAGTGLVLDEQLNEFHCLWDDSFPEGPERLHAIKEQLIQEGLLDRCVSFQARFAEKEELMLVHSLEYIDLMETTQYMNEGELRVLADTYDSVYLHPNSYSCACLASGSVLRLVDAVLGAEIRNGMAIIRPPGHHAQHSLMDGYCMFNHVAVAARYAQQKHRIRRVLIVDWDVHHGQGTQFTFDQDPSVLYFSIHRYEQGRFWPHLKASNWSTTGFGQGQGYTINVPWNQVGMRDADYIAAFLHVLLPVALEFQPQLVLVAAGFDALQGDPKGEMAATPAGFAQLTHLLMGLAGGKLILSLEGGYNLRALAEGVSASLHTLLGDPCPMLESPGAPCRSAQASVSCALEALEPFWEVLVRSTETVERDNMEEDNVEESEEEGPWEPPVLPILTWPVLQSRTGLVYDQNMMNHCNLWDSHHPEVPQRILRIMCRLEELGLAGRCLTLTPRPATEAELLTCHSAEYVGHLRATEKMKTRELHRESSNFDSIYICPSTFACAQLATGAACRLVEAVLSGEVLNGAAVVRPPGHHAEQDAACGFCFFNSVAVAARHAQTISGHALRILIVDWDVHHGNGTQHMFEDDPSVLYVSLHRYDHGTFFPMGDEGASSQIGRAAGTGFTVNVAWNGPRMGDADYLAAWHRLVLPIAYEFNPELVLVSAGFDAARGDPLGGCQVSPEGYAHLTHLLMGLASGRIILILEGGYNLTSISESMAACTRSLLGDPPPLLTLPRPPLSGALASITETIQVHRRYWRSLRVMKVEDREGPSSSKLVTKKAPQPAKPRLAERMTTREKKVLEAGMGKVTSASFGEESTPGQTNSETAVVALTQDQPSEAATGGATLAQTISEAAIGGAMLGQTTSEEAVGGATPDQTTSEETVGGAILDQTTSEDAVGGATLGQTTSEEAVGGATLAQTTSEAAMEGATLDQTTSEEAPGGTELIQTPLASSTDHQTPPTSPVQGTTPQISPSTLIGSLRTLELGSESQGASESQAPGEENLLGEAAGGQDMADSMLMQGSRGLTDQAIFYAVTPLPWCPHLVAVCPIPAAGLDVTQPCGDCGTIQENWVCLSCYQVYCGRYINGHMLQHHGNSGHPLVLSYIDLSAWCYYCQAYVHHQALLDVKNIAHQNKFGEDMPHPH

HL-60 [8] = assay: Upregulation of PARP cleavage in human HL-60 cells at 2 uM measured after 12 hrs by Western blot analysis; type: functional, cell-based
HL-60 [9] = assay: Induction of apoptosis in human HL-60 cells assessed as live cells at 2 uM measured after 24 hrs by Annexin-V/FITC and propidium iodide staining based flow cytometry (reference value: 89.29 %); type: functional
HL-60 [10] = assay: Induction of apoptosis in human HL-60 cells assessed as late apoptotic cells at 2 uM measured after 24 hrs by Annexin-V/FITC and propidium iodide staining based flow cytometry (reference value: 7.24 %); type: functional
HL-60 [11] = assay: Antiproliferative activity against human HL-60 cells assessed as cell growth inhibition after 72 hrs by trypan blue staining based cell counting assay; type: functional; conditions: HL-60, 72 h
HL-60 [12] = assay: Induction of apoptosis in human HL-60 cells assessed as increase in accumulation at sub-G1 phase at 2 uM after 24 hrs by propidium iodide staining based flow cytometry (reference value: 2.72 %); type: functional
[13] = Half life in Sprague-Dawley rat at 5 mg/kg, iv measured up to 24 hrs by LC-MS/MS analysis; type: ADME, organism-based; conditions: in vivo
HL-60 [14] = assay: Induction of apoptosis in human HL-60 cells assessed as necrotic cells at 1 uM measured after 24 hrs by Annexin-V/FITC and propidium iodide staining based flow cytometry (reference value: 1.01 %); type: functional
HL-60 [15] = assay: Induction of apoptosis in human HL-60 cells assessed as late apoptotic cells at 1 uM measured after 24 hrs by Annexin-V/FITC and propidium iodide staining based flow cytometry (reference value: 7.24 %); type: functional
HL-60 [16] = assay: Induction of apoptosis in human HL-60 cells assessed as necrotic cells at 2 uM measured after 24 hrs by Annexin-V/FITC and propidium iodide staining based flow cytometry (reference value: 1.01 %); type: functional
HL-60 [17] = assay: Induction of apoptosis in human HL-60 cells assessed as early apoptotic cells at 2 uM measured after 24 hrs by Annexin-V/FITC and propidium iodide staining based flow cytometry (reference value: 2.46 %); type: functional
Histone deacetylase 2 = Histone deacetylase 2 (Homo sapiens, UniProt Q92769); assay: (§1) Inhibition of recombinant human HDAC2 expressed in baculovirus infected Sf9 cells using Boc-Lys(Ac)-AMC as substrate preincubated for 15 mins followed by substrate addition and measured after 60 mins by fluorescence based assay; type: cell-based
[18] = AUC (0 to infinity) in Sprague-Dawley rat at 5 mg/kg, iv measured up to 24 hrs by LC-MS/MS analysis; type: ADME, organism-based; parameters: route intravenous, dose 5 mg/kg, time <=24; conditions: in vivo
HL-60 [19] = assay: Induction of apoptosis in human HL-60 cells assessed as late apoptotic cells at 0.5 uM measured after 24 hrs by Annexin-V/FITC and propidium iodide staining based flow cytometry (reference value: 7.24 %); type: functional
HL-60 [20] = assay: Upregulation of acetylated alpha-tubulin level in human HL-60 cells at 2 uM measured after 12 hrs by Western blot analysis; type: functional, cell-based
HL-60 [21] = assay: Induction of apoptosis in human HL-60 cells assessed as live cells at 1 uM measured after 24 hrs by Annexin-V/FITC and propidium iodide staining based flow cytometry (reference value: 89.29 %); type: functional
Histone deacetylase 1 = Histone deacetylase 1 (Homo sapiens, UniProt Q13547); assay: Inhibition of recombinant human C-terminal FLAG/His-tagged HDAC1 (1 to 482 residues) expressed in Sf9 insect cells using Boc-Lys (Ac)-AMC as substrate preincubated for 15 mins followed by substrate addition and measured after 60 mins by fluorescence based assay
[22] = biological target: Histone deacetylase 3/Nuclear receptor corepressor 2 (HDAC3/NCoR2) (Homo sapiens, UniProt O15379); assay: as §1, with “of C-terminal His-tagged” for “of”, “HDAC3 (1 to 428 residues)/N-terminal GST-tagged recombinant human NCoR2 (395 to 489 residues) co-expressed” for “HDAC2 expressed”
PC-3 = assay: Cytotoxicity against human PC-3 cells assessed as reduction in cell viability after 96 hrs by MTT assay; type: functional, cell-based; conditions: PC-3, 96 h
[23] = Cmax in Sprague-Dawley rat at 5 mg/kg, iv measured up to 24 hrs by LC-MS/MS analysis; type: ADME, organism-based; parameters: route intravenous, dose 5 mg/kg, time <=24; conditions: in vivo
HL-60 [24] = assay: Upregulation of acetylated H3 level in human HL-60 cells at 2 uM measured after 12 hrs by Western blot analysis; type: functional, cell-based

Chain of Histone deacetylase 1 (Q13547 whole entry, the tested form may be a part): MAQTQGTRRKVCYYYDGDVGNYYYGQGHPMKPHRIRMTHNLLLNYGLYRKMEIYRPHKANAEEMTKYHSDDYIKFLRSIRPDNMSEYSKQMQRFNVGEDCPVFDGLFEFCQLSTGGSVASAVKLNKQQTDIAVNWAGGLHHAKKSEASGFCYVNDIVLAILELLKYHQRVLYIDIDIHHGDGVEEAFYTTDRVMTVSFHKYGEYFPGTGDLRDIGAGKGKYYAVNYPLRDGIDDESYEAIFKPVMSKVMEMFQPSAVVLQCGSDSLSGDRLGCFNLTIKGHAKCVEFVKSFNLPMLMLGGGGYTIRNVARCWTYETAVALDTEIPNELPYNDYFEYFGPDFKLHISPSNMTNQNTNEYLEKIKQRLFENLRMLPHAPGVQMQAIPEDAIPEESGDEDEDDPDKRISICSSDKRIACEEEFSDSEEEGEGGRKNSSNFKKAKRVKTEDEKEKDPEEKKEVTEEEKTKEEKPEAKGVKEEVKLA
Chain of Histone deacetylase 2 (Q92769 whole entry): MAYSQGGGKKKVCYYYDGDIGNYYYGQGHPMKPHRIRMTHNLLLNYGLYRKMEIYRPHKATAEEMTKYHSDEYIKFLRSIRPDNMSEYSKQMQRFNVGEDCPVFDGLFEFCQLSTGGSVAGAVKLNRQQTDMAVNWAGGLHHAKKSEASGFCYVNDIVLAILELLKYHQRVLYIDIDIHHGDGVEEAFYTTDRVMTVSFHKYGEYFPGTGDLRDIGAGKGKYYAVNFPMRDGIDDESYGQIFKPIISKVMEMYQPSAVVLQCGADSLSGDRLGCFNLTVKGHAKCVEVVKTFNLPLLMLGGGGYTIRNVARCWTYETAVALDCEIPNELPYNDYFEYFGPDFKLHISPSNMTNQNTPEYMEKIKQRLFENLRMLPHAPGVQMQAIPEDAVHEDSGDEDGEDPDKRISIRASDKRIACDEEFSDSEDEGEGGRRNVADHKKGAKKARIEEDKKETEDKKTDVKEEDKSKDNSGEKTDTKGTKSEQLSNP
Chain of Histone deacetylase 3/Nuclear receptor corepressor 2 (HDAC3/NCoR2) (O15379 whole entry, the tested form may be a part): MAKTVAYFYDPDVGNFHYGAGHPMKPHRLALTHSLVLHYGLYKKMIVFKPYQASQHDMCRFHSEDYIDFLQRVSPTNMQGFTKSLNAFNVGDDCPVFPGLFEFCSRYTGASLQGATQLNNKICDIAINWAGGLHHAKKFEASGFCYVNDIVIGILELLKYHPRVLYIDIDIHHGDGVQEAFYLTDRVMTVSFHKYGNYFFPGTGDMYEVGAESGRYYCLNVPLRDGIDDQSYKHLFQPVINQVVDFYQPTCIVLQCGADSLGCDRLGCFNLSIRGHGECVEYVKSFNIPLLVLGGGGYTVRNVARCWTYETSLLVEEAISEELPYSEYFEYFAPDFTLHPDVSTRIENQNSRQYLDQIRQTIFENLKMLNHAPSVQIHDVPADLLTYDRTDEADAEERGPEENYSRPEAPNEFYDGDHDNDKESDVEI
Chain of Histone deacetylase 3/Nuclear receptor corepressor 2 (HDAC3/NCoR2) (Q9Y618 whole entry, further chain, the tested form may be a part): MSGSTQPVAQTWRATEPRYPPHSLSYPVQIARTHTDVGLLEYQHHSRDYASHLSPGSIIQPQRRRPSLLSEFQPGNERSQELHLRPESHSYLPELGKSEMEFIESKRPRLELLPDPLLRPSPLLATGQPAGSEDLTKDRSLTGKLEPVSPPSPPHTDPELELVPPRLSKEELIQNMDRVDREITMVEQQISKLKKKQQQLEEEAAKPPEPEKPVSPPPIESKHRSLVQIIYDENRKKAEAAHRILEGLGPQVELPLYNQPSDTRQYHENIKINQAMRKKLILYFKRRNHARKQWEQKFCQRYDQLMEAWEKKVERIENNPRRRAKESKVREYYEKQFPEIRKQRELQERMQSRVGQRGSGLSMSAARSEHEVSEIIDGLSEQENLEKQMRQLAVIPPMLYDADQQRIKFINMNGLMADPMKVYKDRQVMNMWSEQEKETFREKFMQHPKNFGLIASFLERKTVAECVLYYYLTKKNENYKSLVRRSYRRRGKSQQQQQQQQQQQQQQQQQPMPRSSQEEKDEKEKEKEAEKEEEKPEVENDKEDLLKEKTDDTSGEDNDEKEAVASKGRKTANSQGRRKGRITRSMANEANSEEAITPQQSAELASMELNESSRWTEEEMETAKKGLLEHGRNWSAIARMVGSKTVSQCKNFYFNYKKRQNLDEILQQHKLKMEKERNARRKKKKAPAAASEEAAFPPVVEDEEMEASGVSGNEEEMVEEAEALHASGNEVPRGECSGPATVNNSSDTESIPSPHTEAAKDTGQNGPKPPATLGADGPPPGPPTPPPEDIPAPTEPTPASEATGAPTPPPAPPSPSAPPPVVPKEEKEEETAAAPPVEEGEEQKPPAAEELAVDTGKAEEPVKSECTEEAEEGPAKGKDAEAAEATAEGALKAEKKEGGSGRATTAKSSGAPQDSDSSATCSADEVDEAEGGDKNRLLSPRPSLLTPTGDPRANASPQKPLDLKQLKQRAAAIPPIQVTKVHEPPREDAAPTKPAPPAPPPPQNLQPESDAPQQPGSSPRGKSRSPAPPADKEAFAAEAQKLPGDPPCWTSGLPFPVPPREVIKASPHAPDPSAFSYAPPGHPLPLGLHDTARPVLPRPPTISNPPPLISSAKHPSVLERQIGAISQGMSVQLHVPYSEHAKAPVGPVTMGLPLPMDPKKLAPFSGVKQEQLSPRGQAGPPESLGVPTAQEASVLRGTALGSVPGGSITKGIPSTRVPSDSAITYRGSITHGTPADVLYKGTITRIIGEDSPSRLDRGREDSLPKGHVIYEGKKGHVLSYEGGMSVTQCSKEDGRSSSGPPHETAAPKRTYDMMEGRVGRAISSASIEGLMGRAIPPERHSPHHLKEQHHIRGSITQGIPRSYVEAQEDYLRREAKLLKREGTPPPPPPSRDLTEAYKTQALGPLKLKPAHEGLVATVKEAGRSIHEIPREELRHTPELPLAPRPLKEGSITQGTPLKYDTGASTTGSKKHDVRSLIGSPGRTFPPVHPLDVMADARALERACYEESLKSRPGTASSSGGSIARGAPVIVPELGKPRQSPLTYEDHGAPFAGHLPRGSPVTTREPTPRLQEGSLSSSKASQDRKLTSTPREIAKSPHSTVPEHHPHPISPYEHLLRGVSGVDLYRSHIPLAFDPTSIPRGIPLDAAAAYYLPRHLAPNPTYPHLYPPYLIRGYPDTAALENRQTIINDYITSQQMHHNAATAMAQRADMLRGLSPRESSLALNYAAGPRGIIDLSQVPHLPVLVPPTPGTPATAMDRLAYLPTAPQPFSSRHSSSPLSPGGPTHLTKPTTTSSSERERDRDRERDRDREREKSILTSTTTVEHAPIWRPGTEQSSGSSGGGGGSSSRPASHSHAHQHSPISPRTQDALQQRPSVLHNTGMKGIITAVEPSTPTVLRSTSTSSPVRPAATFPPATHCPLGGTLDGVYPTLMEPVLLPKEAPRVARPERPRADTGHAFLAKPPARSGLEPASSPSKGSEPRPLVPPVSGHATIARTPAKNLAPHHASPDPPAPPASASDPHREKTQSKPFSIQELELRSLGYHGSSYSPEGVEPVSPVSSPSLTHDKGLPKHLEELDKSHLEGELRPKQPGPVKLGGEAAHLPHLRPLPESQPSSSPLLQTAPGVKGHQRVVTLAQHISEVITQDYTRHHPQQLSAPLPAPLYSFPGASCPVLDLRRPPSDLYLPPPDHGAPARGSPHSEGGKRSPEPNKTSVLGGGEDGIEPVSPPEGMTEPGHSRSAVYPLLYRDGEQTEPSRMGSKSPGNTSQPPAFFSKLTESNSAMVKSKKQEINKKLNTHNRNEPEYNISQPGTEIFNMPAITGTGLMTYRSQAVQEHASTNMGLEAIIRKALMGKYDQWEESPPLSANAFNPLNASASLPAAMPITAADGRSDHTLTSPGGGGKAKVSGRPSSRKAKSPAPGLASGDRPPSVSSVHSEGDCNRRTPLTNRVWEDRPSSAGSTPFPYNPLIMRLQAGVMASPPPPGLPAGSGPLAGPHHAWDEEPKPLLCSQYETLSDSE

IC50 [7]: 368 nM
IC50 (HL-60 [11]): 370 nM
half-life [13]: 16.8 h
IC50 (Histone deacetylase 2): 4830 nM
AUC(0-inf) [18]: 3780 ng·h/mL
IC50 (Histone deacetylase 1): 2510 nM
IC50 [22]: 635 nM
Cmax [23]: 10800 ng/mL
SMILES: CC1(C)C(=O)C(C#N)=C[C@]2(C)[C@H]3C(=O)C=C4[C@@H]5C[C@@](C)(C(=O)N6CCN(c7ccc(NC(=O)CCCCCCC(=O)NO)cc7)CC6)CC[C@]5(C)CC[C@@]4(C)[C@]3(C)CC[C@@H]12
Activity (HL-60 [1]): 68.63%
Activity (HL-60 [2]): 27.28%
Activity (HL-60 [3]): 3.91%
Activity (HL-60 [4]): 2.92%
Activity (HL-60 [5]): 58.14%
Activity (HL-60 [6]): 1.17%
Activity (HL-60 [8]): Active
Activity (HL-60 [9]): 23.9%
Activity (HL-60 [10]): 65.55%
Activity (HL-60 [12]): 76.29%
Activity (HL-60 [14]): 20.73%
Activity (HL-60 [15]): 40.45%
Activity (HL-60 [16]): 8.05%
Activity (HL-60 [17]): 2.51%
Activity (HL-60 [19]): 24.55%
Activity (HL-60 [20]): Active
Activity (HL-60 [21]): 37.66%
IC50 (PC-3): 470 nM
Activity (HL-60 [24]): Active

— ChEMBL document CHEMBL4680138, “A 18β-glycyrrhetinic acid conjugate with Vorinostat degrades HDAC3 and HDAC6 with improved antitumor effects” (Eur J Med Chem, 2020)
